According to patent US10669238B2, “Irreversible bruton's tyrosine kinase inhibitor” (HEFEI INSTITUTES OF PHYSICAL SCIENCE, CHINESE ACADEMY OF …, priority 2016, dated 2020):

Columns and labels:
Assay type in all cases: cell-based
[1] = tested on: Pfeiffer (human diffuse large cell lymphoma B lymphocytes); assay: Cell apoptosis (PARP and Caspase 3 cleavage) in Pfeiffer; conditions: 48 hours
Procedure: (§1) Various concentrations (0.5 μM, 1 μM, 5 μM, 10 μM) of Compound 1 was administered to Pfeiffer (human diffuse large cell lymphoma B lymphocytes, purchased from Cobioer Biosciences Co., LTD (Nanjing)) and U2932 (B-cell lymphoma cells, purchased from ATCC) in order to confirm whether cell death after the administration was caused by apoptosis or necrosis. After 48 hours, effects of Compound 1 on protein cleavage of the DNA repairase poly(ADP-ribose) polymerase (PARP) and Caspase (cysteinyl aspartate-specific proteinase) 3 that were closely related to cell apoptosis was examined.

[2] = tested on: U2932 (B-cell lymphoma cells); assay: Cell apoptosis (PARP and Caspase 3 cleavage) in U2932
Procedure: as §1

[3] = tested on: Pfeiffer (human diffuse large cell lymphoma B lymphocytes); assay: Cell cycle distribution by flow cytometry in Pfeiffer; conditions: 10 μM, 48 hours
Procedure: (§2) Effect of Compound 1 on cell cycle distribution was examined respectively in Pfeiffer (human diffuse large cell lymphoma B lymphocytes, purchased from Cobioer Biosciences Co., LTD (Nanjing)) and U2932 (B-cell lymphoma cells, purchased from ATCC) cells in order to study the growth cycle to which the cells were blocked upon compound administration. The above cells were treated with various concentrations (0.5 μM, 1 μM, 5 μM, 10 μM) of Compound 1, 10 μM of PC132765 and 10 μM of Compound 6 (FIG. 4a) or 1 μM of Compound 6 (FIG. 4b) for 48 hours, and then cells were collected and washed twice with 1×PBS buffer, and fixed with 75% ethanol at −20° C. for 24 hours, washed again with 1×PBS buffer twice, followed by addition of 0.5 mL 1×PBS buffer and 0.5 mL of PI dyeing liquor (purchased from BD Bioscience, USA), and then the cells were placed in the dark at 37° C. for dyeing 15 minutes and the cell cycle distribution was detected by flow cytometry (BD FACS Calibur).
(§3) Experiments shown in FIGS. 4a-4b reflected that Compound 1 influenced the cell cycle of both two cell strains.

[4] = tested on: U2932 (B-cell lymphoma cells); assay: Cell cycle distribution by flow cytometry in U2932; conditions: U2932, 10 μM, 48 hours
Procedure: as §2, §3

[5] = tested on: human leukocyte leukemia cells HEL; assay: Cell proliferation (Cell Titer-Glo), HEL; conditions: 72 hours, read-out: Effects on cell proliferation (GI50)
Procedure: (§4) The selectivity of Compound 1 in inhibiting the proliferation of cancer cells was further evaluated by testing the effect of Btk inhibitors on the growth of cancer cells. […]
(§5) In this example different concentrations (0.000508 μM, 0.00152 μM, 0.00457 μM, 0.0137 μM, 0.0411 μM, 0.123 μM, 0.370 μM, 1.11 μM, 3.33 μM, 10 μM) of Compound 1 and Compound 6 were respectively added into the above cells which were then cultured for 72 hours. The number of viable cells was determined via quantitative determination of ATP in living cells by using Cell Titer-Glo® (Promega, the USA) Chemical Luminescent Cell Viability Assay kit.

[6] = tested on: acute myeloid leukemia cell lines MV4-11; assay: Cell proliferation (Cell Titer-Glo), MV4-11; conditions: Homo sapiens; MV4-11, 72 hours; read-out: Effects on cell proliferation (GI50)
Procedure: as §4, §5

[7] = tested on: MDS-RAEB cell lines SKM-1; assay: Cell proliferation (Cell Titer-Glo), SKM-1; conditions: Homo sapiens; SKM-1, 72 hours; read-out: Effects on cell proliferation (GI50)
Procedure: as §4, §5

[8] = tested on: diffuse large B-cell lymphoma cell lines Pfeiffer; assay: Cell proliferation (Cell Titer-Glo), Pfeiffer; conditions: Homo sapiens, 72 hours, read-out: Effects on cell proliferation (GI50)
Procedure: as §4, §5

[9] = tested on: bone marrow plasma cell tumor cells AMO-1; assay: Cell proliferation (Cell Titer-Glo), AMO-1; conditions: Homo sapiens, AMO1; AMO-1, 72 hours; read-out: Effects on cell proliferation (GI50)
Procedure: as §4, §5

[10] = biological target: T1, TEL-BLK-BaF3 cells (stably expressing TEL-BLK activated kinase) (Homo sapiens, UniProt P51451); assay: Cell proliferation (Cell Titer-Glo), BaF3-tel-BLK; conditions: BaF3-tel-BLK (mouse BaF3 cells), 72 hours; read-out: Effects on cell proliferation (GI50)
T1 construct: expressed in transfected cells; host or cells: mouse BaF3 cells, retroviral MSCV-Puro; the other entry of the earlier key: ETV6 (P41212, Transcription factor ETV6)
T1 sequence (P51451 241-494 limits assumed): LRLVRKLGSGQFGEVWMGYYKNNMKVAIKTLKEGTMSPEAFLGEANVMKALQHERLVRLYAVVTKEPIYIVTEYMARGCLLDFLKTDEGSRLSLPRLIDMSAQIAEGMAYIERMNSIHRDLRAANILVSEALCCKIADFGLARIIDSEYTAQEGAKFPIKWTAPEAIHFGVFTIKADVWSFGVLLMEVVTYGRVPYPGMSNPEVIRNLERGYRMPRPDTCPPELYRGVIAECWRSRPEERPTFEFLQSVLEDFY
Procedure: as §4, §5

GI50 [5]	GI50 [6]	GI50 [7]	GI50 [8]	GI50 [9]	GI50 [10]	Structure (SMILES)	cleavage of DNA repairase poly(ADP-ribose) polymerase (PARP) ([1]; 10 μM)	cell apoptosis [1]	cleavage of DNA repairase poly(ADP-ribose) polymerase (PARP) ([2]; U2932, 10 μM, 48 hours)	cell apoptosis ([2]; U2932, 48 hours)	effect on cell cycle [3]	effect on cell cycle [4]
5.3 µM	2.1 µM	7.1 µM	4.5 µM	3.4 µM	4.7 µM	C=CC(=O)Nc1cc(Nc2cc(-c3cccc(NC(=O)c4ccc(C(C)(C)C)cc4)c3C)cn(C)c2=O)ccc1C(=O)N1CCOCC1 [Compound 1, N-(3-(5-((3-acrylamide-4-(morpholin-4-carbonyl)phenyl)amino)-1-methyl-6-oxo-1,6-dihydropyridin-3-yl)-2-methylphenyl)-4-(tert-butyl)benzamide]	significant cleavage	could lead to cell apoptosis	significant cleavage	could lead to cell apoptosis	significant cell cycle arrest in G0-G1	significant cell cycle arrest in G0-G1
> 10 µM	4.8 µM	> 10 µM	> 10 µM	8 µM	5.4 µM	CCC(=O)Nc1cc(Nc2cc(-c3cccc(NC(=O)c4ccc(C(C)(C)C)cc4)c3C)cn(C)c2=O)ccc1C(=O)N1CCOCC1 [Compound 6, N-(3-(5-((3-propanamide-4-(morpholin-4-carbonyl)phenyl)amino)-1-methyl-6-oxo-1,6-dihydropyridin-3-yl)-2-methylphenyl)-4-(tert-butyl)benzamide]	–	–	–	–	–	–
